Experimental data reported in patent US20090318534A1, “METHODS AND COMPOSITIONS FOR THE TREATMENT OF SKIN DISEASES AND DISORDERS” (THE REGENTS OF THE UNIVERSITY OF CALIFORNIA, priority 2006, published 2009).
Entries after “also recorded” stand apart in the source; their conditions may differ. Each block holds one compound with its values, some of them ahead of it.

Experiments:
[1] = test system: protease activity in rosacea skin; assay: Skin protease activity (BODIPY FL casein substrate) of rosacea skin extracts with protease inhibitors; assay type: biochemical, human; conditions: tape-stripped rosacea facial skin extracts, FITC/BODIPY FL casein, 37° C. 24 h; 20 μg/ml aprotinin, 200 μM AEBSF; FIG. 3k
Description: Skin protease activity. To obtain skin surface protease, facial skin was tape-stripped 20 times then immersed in 1 ml 1 M acetic acid and incubated 4° C. overnight, extracts were lyophilized and the pellet dissolved in 40 μl of 1×PBS, pH 7.4. Protease activity was monitored with EnzCheck® Protease Assay Kit green fluorescence (Molecular Probes, Inc., Eugene, Oreg.) according to manufacturer's instructions. Briefly, 10 μl of the aqueous solution collected from the skin surface was mixed with 190 μl of BODIPY FL casein substrate in 10 mM Tris-HCl, pH 7.8, and incubated at 37° C. for 24 h. Protease activity was monitored as increased fluorescence with SpectraMax GEMINI EM (Molecular Devices Corporation, Sunnyvale, Calif.). In some experiments protease inhibitors were added including mixed protease inhibitors (Complete EDTA-free, 1 tablet/50 ml; Roche, Indianapolis, Ind.), 200 μg/ml bestatin, 20 μg/ml E-64, and 20 μg/ml aprotinin (Sigma-Aldrich, St. Louis, Mo.), 200 μM 4-(2-aminoethyl)-benzenesulfonylfluoride (AEBSF), 200 μM human neutrophil elastase inhibitor (methoxysuccinyl-Ala-Ala-Pro-Ala-chloromethyl ketone), 200 μM human leukocyte elastase inhibitor (methoxysuccinyl-Ala-Ala-Pro-Val-chloromethylketone, Calbiochem, San Diego, Calif.).

[2] = target: T1, kallikrein stratum corneum tryptic enzyme (SCTE) (Homo sapiens, UniProt Q9Y337); assay: Inhibition of SCTE in vitro; assay type: biochemical
T1 sequence (Q9Y337 23-293): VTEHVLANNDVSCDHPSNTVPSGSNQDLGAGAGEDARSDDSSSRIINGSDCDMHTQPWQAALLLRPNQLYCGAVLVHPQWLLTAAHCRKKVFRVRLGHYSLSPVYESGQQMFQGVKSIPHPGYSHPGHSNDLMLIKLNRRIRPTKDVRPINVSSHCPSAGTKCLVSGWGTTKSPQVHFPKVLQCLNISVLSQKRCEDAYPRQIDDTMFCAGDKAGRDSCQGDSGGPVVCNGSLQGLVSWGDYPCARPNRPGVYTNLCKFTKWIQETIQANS
Description: In one aspect of the disclosure, a method of treatment of inflammatory diseases and disorders, rosacea and or acnes comprises inhibiting cathelicidin expression or activity. Examples of compositions and methods for inhibiting the expression of cathelicidins include antisense, ribozyme and gene therapy techniques. For example, rosacea can be inhibited or treated using antisense or ribozyme therapies that reduce the expression of cathelicidin. In one aspect, a vitamin D inhibitor, or vitamin D receptor antagonist can be used to reduce expression of a cathelicidin. Examples of compositions and methods for inhibiting cathelicidin activity include antibodies and small molecule agents. In one aspect, the treatment is at the site of inflammation through topical inhibition of Vitamin D activity, inhibiting of a Vitamin D receptor activity, or an inhibitor of a protease that cleaves full length cathelicidin into its active fragments is provided. For example, a method of the disclosure comprises inhibiting the kallikrein stratum corneum tryptic enzyme (SCTE), an enzyme that cleaves the cathelicidin precursor protein.

[3] = test system: Normal human keratinocytes; assay: Measurement of IL-8 release; assay type: cell-based; conditions: peptides 3.2 μM, 6 h, ELISA; FIG. 4a
Description: Measurement of IL-8 release. Normal human keratinocytes (Cascade Biologics) were grown in EpiLife medium (Cascade Biologics) supplemented with 0.06 mM Ca2, 1% EpiLife defined growth supplement, and 1% penicillin/streptomycin (Invitrogen Life Technologies). Cells were grown at 37° C. in a humidified atmosphere of 5% CO2 and 95% air. Human keratinocytes were cultured to confluence and treated with the cathelicidin peptides (3.2 μM) for 6 h. Supernatants were collected and placed in a sterile 96-well plate for ELISA. IL-8 production was determined by ELISA (R&D systems) according to the manufacturer's instructions.

[4] = test system: mouse skin; assay: Mouse skin inflammation model, subcutaneous injection of cathelicidin peptides; assay type: in vivo, Balb/C and C57/B16 mice; conditions: for skin inflammation (erythema, vascular dilatation) / histology of injected skin: 320 μM in 40 μl; for skin inflammation (erythema, vascular dilatation): injected twice a day for 2 d, assessed after 48 hr; for histology of injected skin: biopsy after 48 hr
Description: Mouse skin inflammation models. All animal procedures were approved by the Veterans Affairs (VA) San Diego Healthcare System subcommittee on animal studies. Balb/C and C57/B16 mice shaved 24 h prior to treatments and injected subcutaneously on the back with 40 μl of peptide (320 μM) twice a day. Forty-eight h after initial injection (total 4 injections), skin inflammation was assessed by the severity of erythema and edema, then biopsied for histology.
Mouse skin inflammation models. Balb/C or […] mice shaved 24 h prior to treatments were injected subcutaneously on the back with 40 μl of peptide at different concentrations (320, 32, 3.2, 0.32 μM, and PBS as 0 μM) twice a day. Forty-eight h after initial injection (total 4 injection), skin inflammation was assessed by the severity of erythema and edema. Skin was then biopsied for hematoxlin eosin staining to examine the histopathological changes. Frozen sections were also prepared and processed for immunostaining that included rat monoclonal anti-mouse Ly-6G (BD Biosciences, San Jose, Calif.) or rat monoclonal anti-mouse CD31 (BD Biosciences). Goat anti-rat IgG conjugated to FITC (Abcam Inc., Cambridge, Mass.) was used as the secondary antibody. Nuclei were stained with DAPI and sections were mounted in ProLong Anti-Fade reagent (Molecular Probes). Images were obtained using an Olympus BX41 microscope (Scientific Instrument Company, Temecula, Calif.).

[5] = test system: mouse skin; assay: Subcutaneous injection of SCTE in mice, skin inflammation and cathelicidin processing; assay type: in vivo
Description: Skin from Spink5^−/− mice had altered expression of cathelicidin peptides similar to that seen in rosacea (FIG. 4i). The main peak was GLL-34 (m/z 3,877; FIG. 4i, arrowhead), a mouse cathelicidin peptide similar in activity to human LL-37. Like LL-37, GLL-34 was not detected in wild-type mouse littermates with normal serine protease activity. […] To determine whether an increase in SCTE results in greater inflammation, SCTE was injected subcutaneously in a manner similar to that used for the cathelicidin peptides themselves. The amount of SCTE in human skin is as high as 2-13 ng per mg of dry weight of skin. From the data of the protease assay, the amount of serine protease activity in lesional skin of individuals with rosacea was estimated to be as high as 500 ng of tryptic kallikrein per mg of dry weight of skin. Therefore, […] of SCTE was injected twice a day for 2 d to mimic local concentrations seen in rosacea. […] Therefore, the increase in SCTE observed in rosacea would account for the pathological changes observed this disease.

[6] = target: T2, mouse cathelicidin (UniProt P51437)
T2 sequence: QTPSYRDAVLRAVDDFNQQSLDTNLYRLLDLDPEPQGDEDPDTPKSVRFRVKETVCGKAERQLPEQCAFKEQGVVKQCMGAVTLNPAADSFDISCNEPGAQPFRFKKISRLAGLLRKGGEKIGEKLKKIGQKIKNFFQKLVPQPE

Compound: NCCc1ccc(S(=O)(=O)F)cc1 [AEBSF, 4-(2-aminoethyl)-benzenesulfonylfluoride]
protease activity in rosacea skin [1]: completely suppressed protease activity; also recorded: effective in eliminating activity
inhibition of SCTE in vitro [2]: can inhibit this enzyme in vitro

Compound: DI-27: synthetic cathelicidin peptide DISCDKDNKRFALLGDFFRKSKEKIGK (SEQ ID NO:7) (Partial Peptide Sequence from TOF-MS)
secretion of IL-8 from cultured human keratinocytes [3]: did not

Compound: FA-29: synthetic cathelicidin peptide FALLGDFFRKSKEKIGKEFKRIVQRIKDF (SEQ ID NO:10) (Partial Peptide Sequence from TOF-MS)
secretion of IL-8 from cultured human keratinocytes [3]: induced secretion of IL-8
skin inflammation (erythema, vascular dilatation) [4]: induced erythema and vascular dilatation
histology of injected skin ([4]; twice a day for 2 d): neutrophilic infiltrate, thrombosis and hemorrhage

Compound: KR-20: synthetic cathelicidin peptide KRIVQRIKDFLRNLVPRTES (SEQ ID NO:15)
secretion of IL-8 from cultured human keratinocytes [3]: did not induce cytokine release
skin inflammation (erythema, vascular dilatation) [4]: did not induce inflammation

Compound: LL-37: synthetic cathelicidin peptide LLGDFFRKSKEKIGKEFKRIVQRIKDFLRNLVPRTES (SEQ ID NO:14) (Partial Peptide Sequence from TOF-MS)
secretion of IL-8 from cultured human keratinocytes [3]: induced secretion of IL-8
skin inflammation (erythema, vascular dilatation) [4]: induced erythema and vascular dilatation
histology of injected skin ([4]; twice a day for 2 d): neutrophilic infiltrate, thrombosis and hemorrhage
lowest concentration with dose-dependent inflammatory reaction ([4]; 320-0.32 μM, 40 μl, twice a day for 2 d, FIG. 7d, Balb/C and C57/B16): 3.2 µM

Compound: SCTE: kallikrein SCTE (stratum corneum tryptic enzyme, KLK5), serine protease that cleaves cathelicidin precursor
cell infiltration after SCTE injection in Camp−/− mice compared with wild type mice ([5]; Camp−/− versus wild type, infiltrated cells per HPF, n=4, P<0.05): considerably less cell infiltration; also recorded: significantly less cell infiltration
skin inflammation and cathelicidin processing after SCTE injection ([5]; active SCTE injected subcutaneously twice a day for 2 d, versus control (boiled SCTE)): induced erythema and inflammatory cell infiltration accompanied by processing of cathelicidin peptide; also recorded: showed inflammation and processed cathelicidin peptide

inhibition of SCTE in vitro [2]: can inhibit this enzyme in vitro
Compound: aprotinin
protease activity in rosacea skin [1]: completely suppressed protease activity; also recorded: effective in eliminating activity

Compound: stratum corneum tryptic enzyme (SCTE)
cathelicidin processing in mouse skin after subcutaneous SCTE injection (SELDI-TOF-MS) [6]: SCTE-treated skin showed inflammation and processed cathelicidin peptide (m/z 4,244, sequence FKKISRLAGLLRKGGEKIGEKLKKIGQKIKNFFQKLV (SEQ ID NO:3))
